Where “and” joins values, the source holds several entries; their conditions need not be identical. Equal entries are not always repeated. Entries after “also recorded” stand apart in the source; their conditions may differ.
Columns and labels:
in vitro = assay type: cell-based, sheep; settings: sheep
Method: The toxicity of WZ1–WZ4 compounds towards red blood cells was tested using the erythrocyte lysis assay (ELA). Erythrocytes from fresh sheep blood (BioMaxima S.A., Poland) were centrifuged and washed with 0.85% NaCl. Next, 100 μL of a 2% suspension of red blood cells in physiological saline was added to the wells of microtiter plate. The double dilutions of compounds WZ1–WZ4 were prepared in the range of 2000–15.62 μg/mL. Appropriate controls were used to assess the hemolytic potential of tested compounds, i.e., 100% lysis of erythrocytes using 4% Triton X-100 (Pol-Aura, Różnowo, Poland) and 0% lysis in saline solution. Next, all sample plates were incubated (1 h at 37 °C), centrifuged for 10 min to separate unlysed red blood cells, and the supernatant was placed in a new plate. The ELA is a biological test by which the lytic response can be measured spectrophotometrically (at a wavelength of 450 nm) by the amount of hemoglobin released. The hemolysis percentage was calculated according to the following equation:(1) % Hemolysis = A450 of test compound treated sample − A450 of buffer treated sample/A450 of 4% Triton X100 treated samples − A450 of buffer treated sample × 100

[1] = test system: 769-P (renal cell carcinoma); test: MTT antiproliferative activity assay; assay type: cell-based, human; settings: for decrease in viability: 769-P; for TI after 24h / TI after 48h: IC50 WS1 / IC50 769-P
Method: (§1) Cancer cell lines originating from different organs, i.e., AGS (stomach—gastric adenocarcinoma), HepG2 (hepatocellular carcinoma), Du145, PC3 (prostate cancer), 769-P (renal cell carcinoma) and physiology cell line WS1 (fibroblasts), were purchased from ATCC. The cell cultures were carried out in an appropriate medium (DMEM or MEM) containing 10% heat-inactivated FBS with penicillin (100 U/mL) and streptomycin (100 U/mL). The cells were kept in a humidified incubator at 37 °C and 5% CO2 and passaged three times before experimenting.
(§2) The antiproliferative properties test for each cancer line was performed in 96-well plates, in which cells with a density of 2 × 10^4 were seeded in 100 µL of medium containing 10% FBS. After 24 h of allowing the cells to attach, the wells were washed with DPBS (Dulbecco’s phosphate-buffered saline) solution and the cells were incubated in fresh medium w/o FBS containing 1 µM, 10 µM, 50 µM, 200 µM or 500 µM of the tested compounds for 24 and 48 h. All substances were first dissolved in DMSO to prepare stock solutions that were then diluted in the medium to obtain a maximum of 0.1% w/v DMSO in the final solution. Each concentration was tested in triplicate. DMSO at a concentration of 0.1% in the medium was also used as a negative control. The antiproliferative activity of the compounds was tested using the MTT test. After each incubation time, the medium containing the test compounds and the negative control was removed, the cells were washed with DPBS solution, and then 100 µL of FBS-free and antibiotic-free fresh medium containing 0.5 mg/mL MTT was added to each well. The plates were incubated for 3 h in an incubator at 37 °C and 5% CO2. After incubation, the medium was removed, the cells were washed with 100 µL of PBS, and 100 µL of DMSO was added to each well to dissolve the purple formazan. The plate was shaken for 3 min and the absorbance was read at 570 nm (BioTek Synergy H1 microplate reader). Cell viability was calculated from the mean of the OD readings. Based on the dose–response curve, IC50 values were calculated (MS Excel). […] Therapeutic index (TI) results were calculated as the ratio of the IC50 of physiological cells to the IC50 of tumor cells.

[2] = test system: AGS (gastric adenocarcinoma); test: MTT antiproliferative activity assay; assay type: cell-based, human; settings: for decrease in viability: AGS; for TI after 24h / TI after 48h: IC50 WS1 / IC50 AGS
Method: as §1, §2

Du145 (prostate cancer) = test: MTT antiproliferative activity assay; assay type: cell-based, human; settings: for concentration at which a statistically significant decrease in viability was observed: tested 1–500 µM; for TI after 48h / TI after 24h: IC50 WS1 / IC50 DU145
Method: as §1, §2

[3] = test system: HepG2 (hepatocellular carcinoma); test: MTT antiproliferative activity assay; assay type: cell-based, human; settings: for TI after 24h / TI after 48h: IC50 WS1 / IC50 HepG2
Method: as §1, §2

PC3 (prostate cancer) = test: MTT antiproliferative activity assay; assay type: cell-based, human; settings: for TI after 24h / TI after 48h: IC50 WS1 / IC50 PC3
Method: as §1, §2

WS1 (fibroblasts) = test: MTT antiproliferative activity assay; assay type: cell-based, human; settings: for concentration at which a statistically significant decrease in viability was observed: tested 1–500 µM
Method: as §1, §2

ALDH1A1 = ALDH1A1 concentration by ELISA in HepG2 cells; assay type: cell-based, human; settings: compound at IC25, 48 h
Method: The effect of compounds WZ1–WZ4 on ALDHA1 levels was investigated (Figure 10). The Du145, HepG2 and 769-P cell lines were treated with the calculated IC25 values for each compound.
Selected cell lines, viz HepG2, Du145 and 769-P, were seeded into 6-well plates and incubated for 24 h after seeding with compounds at a concentration equal to IC25. After a further 24 h or 48 h, cells were detached with trypsin and centrifuged. The resulting cell pellet was resuspended in 0.5 mL PBS. The samples were then sonicated, and protein was determined using the Bradford method (Bio-rad; Hercules, CA, USA). Samples were equilibrated to 10 mg/mL of protein, and ALDH1A1 was determined in the samples prepared in this way. ALDH1A1 determination was performed using an ELISA (SEE824Hu; Cloud Clone Corp., Katy, TX, USA), according to the manufacturer’s protocol.

SMILES	hemolysis at 1 h, 15.62 μg/mL (in vitro)	hemolysis at 1 h, 31.25 μg/mL (in vitro)	hemolysis at 1 h, 62.5 μg/mL (in vitro)	hemolysis at 1 h, 125 μg/mL (in vitro)	hemolysis at 1 h, 250 μg/mL (in vitro)	hemolysis at 1 h, 500 μg/mL (in vitro)	hemolysis at 1 h, 1000 μg/mL (in vitro)	hemolysis at 1 h, 2000 μg/mL (in vitro)	decrease in viability ([1]; 48 h, 1 µM)	TI after 24h ([1]; 24 h)	TI after 48h ([1]; 48 h)	decrease in viability ([2]; 24 h, 1 µM)	decrease in viability ([2]; 48 h, 1 µM)	TI after 24h ([2]; 24 h)	TI after 48h ([2]; 48 h)	TI after 48h (Du145 (prostate cancer); 48 h)	decrease in viability ([3]; HepG2, 24 h, 200 µM)	TI after 24h (PC3 (prostate cancer); 24 h)	concentration at which a statistically significant decrease in viability was observed (WS1 (fibroblasts); 24 h)	decrease in viability ([1]; 24 h, 1 µM)	other results
CNC(=S)NNS(=O)(=O)c1ccccc1 [WZ4, 2-(Benzenesulfonyl)-N-Methylhydrazine-1-Carbothioamide]	0%	0%	0%	3.16%	15.8%	45.3%	88.4%	100%	~ 16%	1.653	15.763	~ 7%	~ 12%	4.537	7.390	1.272 and > 1	~ 18%	0.920 and < 1	1 to 500 µM	–	decrease in viability ([1]; 24 h, across 10–500 µM): 21–56%; decrease in viability ([1]; 48 h, across 1–500 µM): 16–82%; decrease in viability ([2]; 24 h, across 1–500 µM): 7–84%; decrease in viability ([2]; 48 h, across 1–500 µM): 12–92%; decrease in viability (Du145 (prostate cancer); DU145, 48 h, 1 µM): ~ 10%; decrease in viability (Du145 (prostate cancer); Du145, 24 h, 1 µM): ~ 10%; concentration at which a statistically significant decrease in viability was observed (Du145 (prostate cancer); Du145, 24 h): 1 to 500 µM; concentration at which a statistically significant decrease in viability was observed (Du145 (prostate cancer); Du145, 48 h): 1 to 500 µM; decrease in viability ([3]; HepG2, 24 h, 1 µM): ~ 4%; decrease in viability ([3]; HepG2, 48 h, 1 µM): ~ 3%; viability (reduced to) ([3]; HepG2, 48 h, 50 µM): ~ 69%; decrease in viability (PC3 (prostate cancer); PC3, 24 h, 50 µM): ~ 27%; decrease in viability (PC3 (prostate cancer); PC3, 48 h, 200 µM): ~ 32%; decrease in viability (WS1 (fibroblasts); 24 h, all concentrations tested (1–500 µM)): 10–52%; decrease in viability (WS1 (fibroblasts); 48 h, 200 µM): ~ 15%; ALDH1A1 concentration compared to control (ALDH1A1): increase; also recorded: increased levels
CCCCCCNC(=S)NNS(=O)(=O)c1ccccc1 [WZ3, 2-(Benzenesulfonyl)-N-Hexylhydrazine-1-Carbothioamide]	0%	0%	0%	1.14%	11.4%	18.2%	43.2%	85.8%	~ 48%	0.078	115.134	~ 9%	~ 9%	1.169	1.284	–	~ 31%	2.291	1 to 500 µM	~ 22%	decrease in viability ([1]; 24 h, 200 µM): ~ 22%; decrease in viability (Du145 (prostate cancer); Du145, 24 h, 200 µM): ~ 19%; decrease in viability (Du145 (prostate cancer); Du145, 48 h, 50 µM): ~ 6%; TI after 24h (Du145 (prostate cancer); 24 h): 0.476; decrease in viability ([3]; HepG2, 48 h, 1 µM): ~ 7%; TI after 24h ([3]; 24 h): 1.701; TI after 48h ([3]; 48 h): 2.426; viability (reduced to) (PC3 (prostate cancer); PC3, 24 h, 50 µM): ~ 76%; decrease in viability (PC3 (prostate cancer); PC3, 48 h, 200 µM): ~ 11%; decrease in viability (WS1 (fibroblasts); 24 h, 1 µM): ~ 12%; decrease in viability (WS1 (fibroblasts); 48 h, 500 µM): ~ 64%; concentration at which a statistically significant decrease in viability was observed (WS1 (fibroblasts); 48 h): no significant change in viability
CCCCNC(=S)NNS(=O)(=O)c1ccccc1 [WZ2, 2-(Benzenesulfonyl)-N-Butylhydrazine-1-Carbothioamide]	0%	0%	0%	3.15%	8.95%	19.5%	27.9%	36.8%	~ 10%	753,464,970.626	67,951.475	~ 8%	~ 6%	1,905,977,431.260	0.368	28.982	–	289,230,463.397	no reduction in viability	~ 8%	viability at 50 µM (Du145 (prostate cancer); Homo sapiens, DU-145, Du145, 24 h, 50 µM, read-out: viability (dropped to)): ~80%; viability at 1 µM (Du145 (prostate cancer); Homo sapiens, DU-145, Du145, 48 h, 1 µM, read-out: viability (dropped to)): ~92%; TI after 24h (Du145 (prostate cancer); 24 h): 2,352,384.152; decrease in viability ([3]; HepG2, 24 h, 500 µM): ~ 22%; viability (decreased to) ([3]; HepG2, 48 h, 1 µM): ~ 82%; TI after 24h ([3]; 24 h): 205,540,220.291; TI after 48h ([3]; 48 h): 15,880.957; TI after 48h (PC3 (prostate cancer); 48 h): 224,184.286; viability (reduced to) (PC3 (prostate cancer); PC3, 24 h, 200 µM): ~ 82%; viability (reduced to) (PC3 (prostate cancer); PC3, 48 h, 50 µM): ~ 88%; decrease in viability (WS1 (fibroblasts); 48 h, 200 µM): ~ 17%; decrease in viability (WS1 (fibroblasts); 48 h, 500 µM): ~ 23%; ALDH1A1 concentration compared to control (ALDH1A1): increase; also recorded: increased levels
O=S(=O)(NNC(=S)NC1CCCCC1)c1ccccc1 [WZ1, 2-(Benzenesulfonyl)-N-Cyclohexylhydrazine-1-Carbothioamide]	0%	0%	0%	2.11%	7.89%	14.2%	18.4%	34.7%	~ 15%	22.712	7.757	~ 16%	–	14.043	0.952	0.170	~ 15%	18.426	200 µM	~ 11%	decrease in viability ([2]; 48 h, 50 µM): ~ 6%; decrease in viability (Du145 (prostate cancer); Du145, 24 h, 1 µM): ~ 7%; concentration at which a statistically significant decrease in viability was observed (Du145 (prostate cancer); Du145, 48 h): 200 µM; TI after 24h (Du145 (prostate cancer); 24 h): 16.001; decrease in viability ([3]; HepG2, 48 h, 10 µM): ~ 7%; TI after 24h ([3]; 24 h): 0.003; TI after 48h ([3]; 48 h): 7.442; TI after 48h (PC3 (prostate cancer); 48 h): 1.521; decrease in viability (PC3 (prostate cancer); PC3, 24 h, 50 µM): ~ 11%; concentration at which a statistically significant decrease in viability was observed (PC3 (prostate cancer); PC3, 48 h, tested 1–500 µM): 10 µM; concentration at which a statistically significant decrease in viability was observed (WS1 (fibroblasts); 48 h): 200 µM
